Measurements reported in the NIST ThermoML archive (doi:10.1016/j.jct.2019.01.025).
± gives the expanded uncertainty stated by the source.

Settings: 101.33 kPa, Liquid, Vibrating tube method

Row | Structure (SMILES) | mass density (293.15 K) | mass density (298.15 K) | mass density (303.15 K) | mass density (308.15 K) | mass density (313.15 K) | mass density (318.15 K) | mass density (323.15 K)
1 | CCO [ethanol] | 789.4 ± 4 kg/m3 | 785.13 ± 4 kg/m3 | 780.75 ± 4 kg/m3 | 776.41 ± 4 kg/m3 | 772.04 ± 4 kg/m3 | 767.52 ± 4 kg/m3 | 763.04 ± 4 kg/m3
2 | CC(C)O [propan-2-ol] | 785.1 ± 4 kg/m3 | 780.91 ± 4 kg/m3 | 776.57 ± 4 kg/m3 | 772.24 ± 4 kg/m3 | 767.82 ± 4 kg/m3 | 763.19 ± 4 kg/m3 | 758.55 ± 4 kg/m3
3 | NCCO [2-aminoethan-1-ol] | 1016.47 ± 4 kg/m3 | 1012.53 ± 4 kg/m3 | 1008.47 ± 4 kg/m3 | 1004.49 ± 4 kg/m3 | 1000.5 ± 4 kg/m3 | 996.39 ± 4 kg/m3 | 992.41 ± 4 kg/m3
4 | CC(C)(C)O [2-methylpropan-2-ol] |  | 780.61 ± 4 kg/m3 | 775.42 ± 4 kg/m3 | 770.21 ± 4 kg/m3 | 764.92 ± 4 kg/m3 | 759.42 ± 4 kg/m3 | 753.95 ± 4 kg/m3
5 | CCCCO [butan-1-ol] | 809.77 ± 4 kg/m3 | 805.92 ± 4 kg/m3 | 802 ± 4 kg/m3 | 798.14 ± 4 kg/m3 | 794.24 ± 4 kg/m3 | 790.2 ± 4 kg/m3 | 786.21 ± 4 kg/m3
6 | CC(C)CO [2-methyl-1-propanol] | 801.85 ± 4 kg/m3 | 797.99 ± 4 kg/m3 | 794.03 ± 4 kg/m3 | 790.09 ± 4 kg/m3 | 786.12 ± 4 kg/m3 | 781.97 ± 4 kg/m3 | 777.86 ± 4 kg/m3
